According to ChEMBL document CHEMBL1201862, “PubChem BioAssay data set” (2004):
The source made the active and inactive calls.

Key:
[1] = target: T1, Long-chain-fatty-acid--AMP ligase FadD28 (Mycobacterium tuberculosis, UniProt P9WQ59); assay: Fluorescence polarization aasay to screen for inhibitors that compete for the binding of FadD28 to a bisubstrate Measured in Biochemical System Using Plate Reader - 2147-01_Inhibitor_Dose_CherryPick_Activity.; type: functional, Mycobacterium tuberculosis H37Rv
T1 sequence (P9WQ59 whole entry): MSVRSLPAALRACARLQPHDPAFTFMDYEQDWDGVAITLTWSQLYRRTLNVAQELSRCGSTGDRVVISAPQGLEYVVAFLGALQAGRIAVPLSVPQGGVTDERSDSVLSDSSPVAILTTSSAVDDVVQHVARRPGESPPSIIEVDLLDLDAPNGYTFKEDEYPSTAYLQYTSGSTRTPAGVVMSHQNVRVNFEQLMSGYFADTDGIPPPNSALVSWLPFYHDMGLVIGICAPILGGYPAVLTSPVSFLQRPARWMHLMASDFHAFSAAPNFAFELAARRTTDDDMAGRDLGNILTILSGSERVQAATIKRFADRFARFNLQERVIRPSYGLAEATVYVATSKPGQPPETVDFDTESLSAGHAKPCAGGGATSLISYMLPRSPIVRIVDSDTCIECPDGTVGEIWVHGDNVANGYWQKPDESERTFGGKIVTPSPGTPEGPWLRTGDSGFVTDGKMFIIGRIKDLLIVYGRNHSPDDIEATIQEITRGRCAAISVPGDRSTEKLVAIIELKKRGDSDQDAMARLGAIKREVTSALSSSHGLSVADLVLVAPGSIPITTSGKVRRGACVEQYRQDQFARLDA

[2] = cells; type: functional, cell-based
[3] = target: T2, Trace amine-associated receptor 1 (Homo sapiens, UniProt Q96RJ0); assay: Fluorescence-based cell-based high throughput dose response assay to identify agonists of the human trace amine associated receptor 1 (TAAR1).; type: functional
T2 sequence (Q96RJ0 whole entry): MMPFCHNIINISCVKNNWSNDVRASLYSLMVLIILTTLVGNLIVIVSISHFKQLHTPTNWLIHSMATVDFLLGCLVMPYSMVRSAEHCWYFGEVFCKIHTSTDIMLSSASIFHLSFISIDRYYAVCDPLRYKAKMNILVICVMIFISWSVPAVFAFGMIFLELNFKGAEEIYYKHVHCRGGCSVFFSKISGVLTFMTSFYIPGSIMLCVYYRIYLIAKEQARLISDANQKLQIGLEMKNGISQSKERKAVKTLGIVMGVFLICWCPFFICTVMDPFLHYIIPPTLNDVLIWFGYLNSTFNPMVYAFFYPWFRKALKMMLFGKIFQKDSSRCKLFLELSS

[4] = target: T2, Trace amine-associated receptor 1; assay: Counterscreen for agonists of the human trace amine associated receptor 1 (hTAAR1): Fluorescence-based cell-based high throughput dose response assay to identify hTAAR1 agonist that also desensitize TAAR1 receptor response.; type: functional
[5] = cells; type: functional, cell-based; remark: listed apart in the source
[6] = inhibitors of HIV Env-driven cell fusion, dose response, cherry-pick (AID 652057); type: functional, cell-based
[7] = CEM21 lymphoblast cell cytotoxicity, dose response, cytotoxicity control for viral fusion inhibitor project, CellTiter-Glo luminescence, cherry-picked (AID 652042); type: functional, cell-based;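 also: potency for signal decrease meaning cytotoxicity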
[8] = ZM109 Env clade C HIV-1 fusion inhibitors, dose response, HeLa effector, CEM target cells, luciferase, cherry-pick (AID 652058); type: functional, cell-based
[9] = off-target signal loss in HeLa-CEM21 co-culture – HeLa F-luc CTL cells, cherry-picked, counter-screen for HIV-1 Env fusion inhibitor project, dose response (AID 652040); type: functional, cell-based;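 also: potency for signal decrease marking cytotoxic or nonspecific inhibition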
[10] = inhibitors of clade B AD8 Env fusion, dose response, cell-based, cherry-pick (AID 652062); type: functional;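 also: luciferase signal from cell-cell fusion driven by HIV-1 clade B AD8 Env; potency is for inhibitors of fusion seen as a drop in luminescence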
[11] = target: T3, Voltage-gated N-type calcium channel alpha-1B subunit/Amyloid beta A4 precursor protein-binding family A member 1 (Homo sapiens, UniProt Q00975+Q02410); type: protein assay
[12] = target: T3, Voltage-gated N-type calcium channel alpha-1B subunit/Amyloid beta A4 precursor protein-binding family A member 1; type: protein assay; remark: listed apart in the source
[13] = target: Paired box protein Pax-8 (Homo sapiens, UniProt Q06710); assay: inhibitors of PAX8-driven TPO luciferase reporter, dose response, RMG-I cells, cherry-pick (AID 687027); type: functional, cell-based;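 also: luciferase reporter driven by Pax8 target thyroperoxidase promoter measured by SteadyGlo luminescence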
[14] = NIH:OVCAR-3 ovarian cancer cell cytotoxicity, dose response, PAX8 inhibitor project, plate reader, dry powder samples (AID 743044); type: functional, cell-based
[15] = IGROV1 ovarian cancer cell cytotoxicity, dose response, PAX8 inhibitor project, plate reader, dry powder samples (AID 743043); type: functional, cell-based; conditions: IGROV-1
[16] = cytotoxicity in OVCAR8 ovarian cancer cells, dose response, PAX8 project, cell-based, plate reader, dry powder samples (AID 743197); type: functional; conditions: OVCAR-8
[17] = A549 cell cytotoxicity, dose response, cytotoxicity control, plate reader, cherry-pick, antagonist series (AID 743412); type: functional, cell-based
[18] = HepG2 cell cytotoxicity, dose response, cytotoxicity control, plate reader, cherry-pick, antagonist series (AID 743416); type: functional, cell-based
[19] = LGR2 antagonists, dose response, cell-based, HEK293, CRE-luciferase reporter, cherry pick, set 2 (AID 743343); type: functional;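 also: transfected cells were stimulated with diluted bursicon conditioned medium after compound addition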
[20] = MC4R antagonists, dose response, counter-screen for LGR2 antagonist project, cell-based, plate reader, cherry pick (AID 743444); type: functional;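 also: transfected HEK 293 cells stimulated with alpha-MSH peptide; potency of inhibitors of the alpha-MSH evoked signal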
[21] = HEK293 cell cytotoxicity, dose response, cytotoxicity control, plate reader, cherry-picked samples (AID 743446); type: functional, cell-based
[22] = target: Prothrombin (Homo sapiens, UniProt P00734); assay: Thrombin 1536 HTS Dose Response Confirmation. [Related pubchem assays: 1046 (Thrombin 1536 HTS; hits were confirmed in this assay)]; type: functional
[23] = target: Ephrin type-A receptor 4 (Mus musculus, UniProt Q03137); assay: inhibitors of EphA4 binding to KYL peptide, primary screen, biochemical, colorimetric, mouse EphA4 (AID 689); type: functional
[24] = target: T4, Polyadenylate-binding protein 1 (Homo sapiens, UniProt P11940); assay: PABP1 MLLE–PAM2 interaction inhibitors, dose response, miRNA deadenylation inhibitor project, biochemical, fluorescence polarization, Cy5-PAM2 peptide, secondary (AID 602260); type: functional; conditions: read-out: IC50_Mean
[25] = target: T4, Polyadenylate-binding protein 1; assay: PABP1 MLLE–PAM2 binding inhibitor potency, dose response, biochemical, fluorescence polarization, FITC-PAM2 peptide (AID 602259); type: functional; conditions: read-out: IC50_Mean
[26] = inhibitors of firefly luciferase expression or activity, dose response, H4 neuroglioma cells, luminescence (AID 1990); type: functional, cell-based
[27] = Luminescence Cell-Based Dose Response HTS to Identify Inhibitors of 5'UTR Stem-Loop Driven Prion Protein mRNA Translation in H4 Neuroglioblastoma Cells. [Related pubchem assays: 1827 (Project Summary), 1813 (Primary HTS)]; type: functional
[28] = inhibitors of SNCA 5'UTR-driven reporter translation, confirmation, H4 neuroglioma cells, luminescence (AID 1988); type: functional, cell-based
[29] = target: T5, Microphthalmia-associated transcription factor (Homo sapiens, UniProt O75030); assay: TRPM1 promoter luciferase signal decrease, dose response, MITF inhibitor project, cell-based, SK-MEL-5, cherry-picked, set 3 (AID 493073); type: functional
T5 sequence (O75030 whole entry): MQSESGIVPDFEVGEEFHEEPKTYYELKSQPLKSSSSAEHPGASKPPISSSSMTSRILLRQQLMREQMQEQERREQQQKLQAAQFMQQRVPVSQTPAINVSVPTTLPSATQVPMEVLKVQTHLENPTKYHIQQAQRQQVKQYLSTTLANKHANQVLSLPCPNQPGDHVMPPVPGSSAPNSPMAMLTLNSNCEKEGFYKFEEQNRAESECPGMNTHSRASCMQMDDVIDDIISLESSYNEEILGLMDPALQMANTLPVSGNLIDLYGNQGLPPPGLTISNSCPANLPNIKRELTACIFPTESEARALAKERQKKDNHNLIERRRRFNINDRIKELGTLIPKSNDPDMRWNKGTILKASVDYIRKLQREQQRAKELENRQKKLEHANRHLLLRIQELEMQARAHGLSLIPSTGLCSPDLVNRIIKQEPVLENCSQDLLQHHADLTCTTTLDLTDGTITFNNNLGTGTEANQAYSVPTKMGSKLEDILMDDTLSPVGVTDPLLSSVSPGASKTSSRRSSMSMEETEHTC

[30] = intracellular Trypanosoma cruzi inhibitors in host cells – cell-based, plate reader, cherry-pick samples, set 3, dose response (AID 651818); type: functional;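 also: compounds incubated with infected cells for about four days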

T3 sequence (Q00975 whole entry): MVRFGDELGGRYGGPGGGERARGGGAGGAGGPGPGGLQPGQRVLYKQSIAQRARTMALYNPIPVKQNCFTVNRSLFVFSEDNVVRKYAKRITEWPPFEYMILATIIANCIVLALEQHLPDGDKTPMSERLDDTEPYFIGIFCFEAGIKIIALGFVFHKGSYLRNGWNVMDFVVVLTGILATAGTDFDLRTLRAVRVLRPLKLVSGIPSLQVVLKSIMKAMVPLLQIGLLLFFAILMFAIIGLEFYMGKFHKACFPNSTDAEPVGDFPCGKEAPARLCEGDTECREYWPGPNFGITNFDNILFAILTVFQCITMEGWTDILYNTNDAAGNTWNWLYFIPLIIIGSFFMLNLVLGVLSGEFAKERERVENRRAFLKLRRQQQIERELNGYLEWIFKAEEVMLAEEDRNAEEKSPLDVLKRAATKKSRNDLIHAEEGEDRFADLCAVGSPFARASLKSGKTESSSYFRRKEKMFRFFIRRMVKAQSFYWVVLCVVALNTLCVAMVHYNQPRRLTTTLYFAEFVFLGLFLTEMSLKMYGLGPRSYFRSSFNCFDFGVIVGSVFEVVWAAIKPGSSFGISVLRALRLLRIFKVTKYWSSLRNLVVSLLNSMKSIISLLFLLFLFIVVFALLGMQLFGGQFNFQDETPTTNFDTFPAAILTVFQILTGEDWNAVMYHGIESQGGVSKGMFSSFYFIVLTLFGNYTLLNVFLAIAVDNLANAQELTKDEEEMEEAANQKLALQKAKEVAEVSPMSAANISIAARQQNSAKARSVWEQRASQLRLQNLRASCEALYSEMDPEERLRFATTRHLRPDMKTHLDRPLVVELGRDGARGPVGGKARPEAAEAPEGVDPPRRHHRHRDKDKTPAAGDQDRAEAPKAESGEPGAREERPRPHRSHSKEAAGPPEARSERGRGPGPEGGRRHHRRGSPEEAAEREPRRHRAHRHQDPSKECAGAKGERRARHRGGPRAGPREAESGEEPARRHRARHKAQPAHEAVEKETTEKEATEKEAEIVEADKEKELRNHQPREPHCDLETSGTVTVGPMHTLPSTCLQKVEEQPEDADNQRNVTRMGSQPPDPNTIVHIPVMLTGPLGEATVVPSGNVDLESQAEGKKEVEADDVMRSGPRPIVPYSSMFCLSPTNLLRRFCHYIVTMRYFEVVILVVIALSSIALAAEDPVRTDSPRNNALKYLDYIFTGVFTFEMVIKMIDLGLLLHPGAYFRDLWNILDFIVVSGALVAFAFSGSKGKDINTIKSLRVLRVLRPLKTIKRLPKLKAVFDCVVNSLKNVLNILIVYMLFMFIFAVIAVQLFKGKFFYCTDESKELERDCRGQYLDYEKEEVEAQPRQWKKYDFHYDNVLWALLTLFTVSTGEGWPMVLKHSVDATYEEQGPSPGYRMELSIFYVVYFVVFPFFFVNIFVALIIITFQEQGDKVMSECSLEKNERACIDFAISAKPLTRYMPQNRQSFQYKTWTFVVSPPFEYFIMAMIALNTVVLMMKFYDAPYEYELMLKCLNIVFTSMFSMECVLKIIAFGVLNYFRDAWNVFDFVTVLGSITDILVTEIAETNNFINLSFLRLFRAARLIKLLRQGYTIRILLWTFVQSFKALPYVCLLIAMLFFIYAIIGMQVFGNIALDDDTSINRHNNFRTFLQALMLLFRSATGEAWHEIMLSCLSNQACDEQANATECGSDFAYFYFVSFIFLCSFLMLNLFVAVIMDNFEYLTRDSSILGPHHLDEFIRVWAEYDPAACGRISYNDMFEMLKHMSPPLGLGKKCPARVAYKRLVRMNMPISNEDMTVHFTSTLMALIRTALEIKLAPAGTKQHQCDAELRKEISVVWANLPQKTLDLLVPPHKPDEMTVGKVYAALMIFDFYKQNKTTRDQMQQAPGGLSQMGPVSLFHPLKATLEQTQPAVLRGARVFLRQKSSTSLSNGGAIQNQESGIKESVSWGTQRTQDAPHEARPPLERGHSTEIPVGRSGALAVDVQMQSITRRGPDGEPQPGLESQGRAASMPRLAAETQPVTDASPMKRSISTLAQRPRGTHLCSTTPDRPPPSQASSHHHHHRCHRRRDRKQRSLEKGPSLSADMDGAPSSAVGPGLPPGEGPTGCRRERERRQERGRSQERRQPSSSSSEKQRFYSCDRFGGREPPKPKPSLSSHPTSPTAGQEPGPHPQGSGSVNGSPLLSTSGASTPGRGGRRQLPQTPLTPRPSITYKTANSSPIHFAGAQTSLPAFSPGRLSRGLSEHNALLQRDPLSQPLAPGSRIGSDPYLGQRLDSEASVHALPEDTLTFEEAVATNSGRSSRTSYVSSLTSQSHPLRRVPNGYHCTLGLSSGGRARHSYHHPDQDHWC
T3 sequence (Q02410 whole entry): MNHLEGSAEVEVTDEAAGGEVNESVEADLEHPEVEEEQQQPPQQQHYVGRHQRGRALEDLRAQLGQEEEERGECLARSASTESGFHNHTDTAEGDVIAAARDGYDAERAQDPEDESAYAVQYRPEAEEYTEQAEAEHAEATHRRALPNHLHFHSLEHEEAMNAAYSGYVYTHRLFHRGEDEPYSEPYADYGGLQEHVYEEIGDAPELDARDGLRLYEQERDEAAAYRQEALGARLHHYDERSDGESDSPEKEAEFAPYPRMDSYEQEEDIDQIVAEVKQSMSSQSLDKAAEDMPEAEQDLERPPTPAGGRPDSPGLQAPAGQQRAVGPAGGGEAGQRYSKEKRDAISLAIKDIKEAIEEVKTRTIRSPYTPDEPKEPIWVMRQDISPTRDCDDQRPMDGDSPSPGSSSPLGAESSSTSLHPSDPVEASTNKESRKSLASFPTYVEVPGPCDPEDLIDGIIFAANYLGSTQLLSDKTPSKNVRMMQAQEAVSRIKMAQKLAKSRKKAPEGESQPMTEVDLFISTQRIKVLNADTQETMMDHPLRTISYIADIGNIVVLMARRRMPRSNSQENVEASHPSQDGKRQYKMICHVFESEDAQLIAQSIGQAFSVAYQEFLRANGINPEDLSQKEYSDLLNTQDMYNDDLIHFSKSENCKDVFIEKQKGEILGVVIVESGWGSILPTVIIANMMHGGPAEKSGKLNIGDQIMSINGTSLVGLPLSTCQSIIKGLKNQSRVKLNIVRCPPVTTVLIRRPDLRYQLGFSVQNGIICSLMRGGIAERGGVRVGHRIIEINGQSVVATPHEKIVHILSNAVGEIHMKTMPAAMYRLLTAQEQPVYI
Sequence of Paired box protein Pax-8 (Q06710 whole entry): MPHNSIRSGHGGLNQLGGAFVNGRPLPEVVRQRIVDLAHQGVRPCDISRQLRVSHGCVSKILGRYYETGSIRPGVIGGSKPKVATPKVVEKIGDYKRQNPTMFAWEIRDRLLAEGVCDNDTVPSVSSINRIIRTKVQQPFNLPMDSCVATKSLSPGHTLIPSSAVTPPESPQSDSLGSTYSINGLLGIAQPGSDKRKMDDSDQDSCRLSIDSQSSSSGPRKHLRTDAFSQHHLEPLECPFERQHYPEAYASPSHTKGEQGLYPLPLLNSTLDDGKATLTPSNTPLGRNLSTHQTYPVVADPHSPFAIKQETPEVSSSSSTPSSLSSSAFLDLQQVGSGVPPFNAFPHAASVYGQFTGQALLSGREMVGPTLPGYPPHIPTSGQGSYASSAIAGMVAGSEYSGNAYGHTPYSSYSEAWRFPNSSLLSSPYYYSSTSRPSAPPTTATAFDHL
T4 sequence (P11940 whole entry): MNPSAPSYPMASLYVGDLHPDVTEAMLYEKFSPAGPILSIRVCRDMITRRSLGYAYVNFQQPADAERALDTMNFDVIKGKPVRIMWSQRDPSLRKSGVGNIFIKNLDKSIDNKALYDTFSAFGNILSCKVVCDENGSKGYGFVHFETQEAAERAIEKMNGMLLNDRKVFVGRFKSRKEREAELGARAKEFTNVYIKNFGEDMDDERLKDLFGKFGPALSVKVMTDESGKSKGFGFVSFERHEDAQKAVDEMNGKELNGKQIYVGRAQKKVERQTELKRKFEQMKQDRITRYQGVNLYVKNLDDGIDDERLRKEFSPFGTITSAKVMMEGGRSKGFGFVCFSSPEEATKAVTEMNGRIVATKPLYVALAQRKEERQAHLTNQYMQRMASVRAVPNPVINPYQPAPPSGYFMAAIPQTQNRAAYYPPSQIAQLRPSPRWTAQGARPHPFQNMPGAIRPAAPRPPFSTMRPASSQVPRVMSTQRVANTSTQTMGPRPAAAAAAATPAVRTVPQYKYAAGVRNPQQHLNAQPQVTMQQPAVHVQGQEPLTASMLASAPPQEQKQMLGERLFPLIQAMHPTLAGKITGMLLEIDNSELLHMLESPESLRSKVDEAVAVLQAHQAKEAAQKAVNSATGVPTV

## CCC1=NN(C(=O)c2ccccc2Br)C(O)(c2ccc(Br)cc2)C1 (stereo unspecified)
[1]
  AC50: > 100 µM (inactive)

## COc1ccccc1CCn1cnc(-c2ccc(Br)cc2)c1CC(C)C
[2]
  IC50: 25.7 µM (inactive)
[3]
  EC50: 1.75 µM (active)
[4]
  IC50: 7.08 µM (active)
[5]
  EC50: > 29.9 µM (inactive)

## O=S(=O)(NCC(Nc1ccccc1)c1ccccc1)c1ccc(Cl)cc1 (stereo unspecified)
[6]
  AC50: 2.48 µM (active)
[7]
  AC50: 19 µM (active)
[8]
  AC50: 2.15 µM (active)
[9]
  AC50: 10.4 µM (active)
[10]
  AC50: 34.8 µM (active)

## CCOc1ccc(C(=O)Nc2ccc(-c3nc4ccccc4[nH]3)cc2)cc1[N+](=O)[O-]
[11]
  IC50: 12.2 µM (active)
[12]
  IC50: > 50 µM (inactive)

## C[C@@H]1CN([C@@H](C)CO)C(=O)Cc2cc(NS(=O)(=O)c3ccc(F)cc3)ccc2O[C@H]1CN(C)Cc1ccc(C(F)(F)F)cc1
[13]
  AC50: 4.76 µM (active)
[14]
  AC50: 19.7 µM (active)
[15]
  AC50: 29.2 µM (active)
[16]
  AC50: 26.9 µM (active)

## O=C(CN1CCN(C(=O)CNC(=O)c2ccc(-c3ccccc3)cc2)CC1)Nc1ccccc1Cl
[17]
  AC50: 24.9 µM (active)
[18]
  AC50: 31.7 µM (active)
[19]
  AC50: 43.4 µM (active)
[20]
  AC50: 48.1 µM (active)
[21]
  AC50: 30.1 µM (active)

## Cc1cc(C)c(CN2CCN(C(=O)Cn3ccc(NC(=O)OCc4ccccc4)nc3=O)CC2)c(C)c1
[7]
  AC50: 26.8 µM (active)
[9]
  AC50: > 70 µM (inactive)
[10]
  AC50: 4.37 µM (active)

## COc1ccc(CC(=O)n2nc(-c3cccnc3)nc2N)cc1
[22]
  IC50: 0.259 µM (active)

## Cc1csc(NC(=O)CSc2nnc(NC(=O)NC(C)(C)C)s2)n1
[1]
  AC50: > 100 µM (inactive)

## C[C@H](NC(=O)c1ccccc1)C(=O)OCC(=O)c1c[nH]c2ccccc12
[2]
  IC50: > 29.9 µM (inactive)
[3]
  EC50: 3.28 µM (active)
[4]
  IC50: 7.13 µM (active)
[5]
  EC50: > 29.9 µM (inactive)

## CCN(CC)C(=O)CSc1nc2cc(OC)c(OC)cc2c(=O)n1Cc1ccc(Cl)cc1
[23]
  IC50: > 100 µM (not active)

## CC(C)c1ccc(N(C(=O)c2csnn2)C(C(=O)NC2CCCC2)c2ccncc2)cc1 (stereo unspecified)
[6]
  AC50: 0.795 µM (active)
[7]
  AC50: 60.5 µM (active)
[8]
  AC50: 0.654 µM (active)
[9]
  AC50: 1.59 µM (active)
[10]
  AC50: 1.76 µM (active)

## Oc1nc2ccc(Cl)cc2c(-c2ccccc2)c1N1CCOCC1
[22]
  IC50: > 50 µM (not active)

## Cc1ccc(SCC(=O)Nc2ccc(N3CCN(C)CC3)c(F)c2)c(C)c1
[2]
  IC50: > 29.9 µM (inactive)
[3]
  EC50: 3.5 µM (active)
[4]
  IC50: 5.55 µM (active)
[5]
  EC50: > 29.9 µM (inactive)

## N#CC1=C(N)N=C(S)C(C(N)=O)C1c1ccc([N+](=O)[O-])cc1 (stereo unspecified)
[11]
  IC50: 5.63 µM (active)
[12]
  IC50: > 50 µM (inactive)
[24]
  IC50: > 66 µM (inactive)
[25]
  IC50: > 66 µM (inactive)

## CC1=N/C(=C\c2ccc([N+](=O)[O-])cc2)C(=O)N1c1cc(Cl)ccc1C
[23]
  IC50: 3.45 µM (active)

## CCOC(=O)C(NCCc1ccccc1F)(NC(C)=O)C(F)(F)F (stereo unspecified)
[2]
  IC50: > 29.9 µM (inactive)
[3]
  EC50: 1.84 µM (active)
[4]
  IC50: > 29.9 µM (inactive)
[5]
  EC50: > 29.9 µM (inactive)

## O=c1c2ccccc2cnn1CCOc1ccccc1
[26]
  EC50: 4.07 µM (active)
[27]
  EC50: 0.392 µM (active)
[28]
  EC50: 1.97 µM (active)
[29]
  AC50: 7.2 µM (active)
[17]
  AC50: 45.5 µM (active)
[18]
  AC50: > 52 µM (inactive)
[19]
  AC50: 2.52 µM (active)
[20]
  AC50: 2.62 µM (active)
[21]
  AC50: 48.8 µM (active)

## Cc1ccc2[nH]c(=O)c(C=C3C(=O)NC(=S)NC3=O)cc2c1
[11]
  IC50: 9.32 µM (active)
[12]
  IC50: 42.1 µM (active)

## Nc1nc(-c2ccccc2)nn1C(=O)Cc1ccccc1
[22]
  IC50: 1.51 µM (active)

## O=C(COC(=O)CCOc1ccccc1)Nc1ccc(Cl)cn1
[22]
  IC50: 30.8 µM (active)

## C[C@H](CO)N1C[C@H](C)[C@H](CN(C)Cc2ccc(C(F)(F)F)cc2)Oc2ccc(NC(=O)Nc3ccc(F)cc3)cc2C1=O
[30]
  AC50: 5.6 µM (active)
[17]
  AC50: 23.1 µM (active)
[18]
  AC50: 28 µM (active)
[19]
  AC50: 33.1 µM (active)
[20]
  AC50: 26.4 µM (active)

## O=C(C[C@H]1C[C@@H]2c3cc(NC(=O)Nc4ccc(C(F)(F)F)cc4)ccc3O[C@@H]2[C@@H](CO)O1)NCc1ccc(Cl)cc1
[13]
  AC50: 7.85 µM (active)
[14]
  AC50: 61.1 µM (active)
[15]
  AC50: 40.9 µM (active)
